Measured values as given in patent US20120082736A1, “Small-molecule TNF modulator to reduce the side effects of chemotherapy and radiotherapy” (GeneBlue Corporation, priority 2010, published 2012).
“Also recorded” adds a separate entry of the source.

What was measured:
[1] = system: apoptotic liver cells; assay: TUNEL assay for apoptotic liver cells after liver irradiation (Example 8); format: in vivo, mice; conditions: for numbers of TUNEL positive cells induced by irradiation: 15 Gy, relative to non-irradiated controls, irradiated vehicle 4.1
Description: Mice were pre-treated with various doses of UTL-5g (7.5, 15, 30, and 60 mg/kg, i.p.) or control vehicle at 1 hr prior to liver radiation with 15 Gy. […] Representative liver sections showing TUNEL positive cells (green) counter-stained with […] (4′-6-diamidino-2-phenylindole) for nuclei under fluorescent microscope (40×) (6B). RT: radiation treatment.
To further analyze the radioprotective effect of UTL-5g, we examined the number of liver apoptotic cells by in situ TUNEL staining At the end of treatment, liver tissue sections were prepared, fixed and stained with TUNEL staining for apoptotic cells. There were “spontaneous” apoptotic liver cells in control animals as detected by TUNEL staining (20/five random fields), approximately 0.2% of total liver cells. […] The radioprotective effect of UTL-5g was dose-dependent.

[2] = system: BDF1 mice; assay: Add-on study: does UTL-5g increase platelet count by itself (Example 3); format: in vivo
Description: Gp 1: medium (saline). Gp 2: saline followed by cisplatin (2.5 mg/kg) 30 min later. Gp 3: UTL-5g (15 mg/kg) followed by cisplatin 30 min later. Gp 4: UTL-5g (30 mg/kg) followed by cisplatin (2.5 mg/kg) 30 min later. Gp 5: UTL-5g (60 mg/kg) followed by cisplatin (2.5 mg/kg) 30 min later. Gp 6: amifostine (200 mg/kg) followed by cisplatin (2.5 mg/kg) 30 min later. Gp 7: saline followed by cisplatin (5 mg/kg) 30 min later. Gp 8: UTL-5g (60 mg/kg) followed by medium (saline) 30 min later. Gp 1-Gp 6 were daily ×5, but Gp 7 was by single dose on day 0 only. StDev is shown for each Gp (n=5 for each group except n=4 for Gp 7). * P<0.05, ** p<0.005 vs. medium control by Student's t-t (two-tailed).
To further investigate whether UTL-5g by itself would increase platelet count, the following small add-on study was conducted: • Gp 1: medium (saline) followed by medium (saline) 30 min later (same as Gp 1 before) • Gp 2: medium (saline) followed by cisplatin (2.5 mg/kg) 30 min later (same as Gp 2 before) • Gp 5: UTL-5g (60 mg/kg) followed by cisplatin (2.5 mg/kg) 30 min later (Same as Gp 5 before) • Gp 8: UTL-5g alone (60 mg/kg) followed by medium (saline) 30 min later (New Gp)

[3] = system: TNF-α; assay: Liver TNF-α levels after liver irradiation (ELISA); format: in vivo, mice
Description: Mice were treated individually with 0.3 mL each of UTL-5g preparations i.p. 1 hr prior to liver irradiation at 15 Gy. Liver TNF-α levels were analyzed by standard ELISA methodology.
Based on the preliminary studies, UTL-5g was selected for dose-dependent radioprotective studies. In this study, animals were treated with increasing doses of UTL-5g (from 0 to 60 mg/kg) one hr prior to liver irradiation (15 Gy). Two hr after irradiation, animals were sacrificed and serum AST/ALT enzyme activities and liver TNF-α levels were determined. […] For animals pre-treated with UTL-5g at 30 mg/kg, AST/ALT activity levels were lowered from 135/29 to 89/22 Unit/L, and those pre-treated with UTL-5g at 60 mg/kg, AST/ALT levels were reduced from 135/29 to 74/19 Unit/L, respectively.

[4] = system: TNF-α; assay: TNF-α levels in plasma of cisplatin-treated mice (commercial assay kit, eBioscience); format: in vivo; conditions: UTL-5g 15, 30, 60 mg/kg ip 30 min before cisplatin 2.5 mg/kg, daily ×5; pooled plasma
Description: FIG. 5. Effect of UTL-5g on TNF-α levels in plasma for mice treated with cisplatin. Gp 1, medium control (saline) only; Gp 2, saline followed by cisplatin (2.5 mg/kg) 30 min later; Gp 3, UTL-5g (15 mg/kg) followed by cisplatin 30 min later; Gp 4, UTL-5g (30 mg/kg) followed by cisplatin 30 min later; Gp 5, UTL-5g (60 mg/kg) followed by cisplatin 30 min later. Y axis represents the relative levels of TNF-α assuming 0% for Gp 1 (Control). Level of TNF-α on the figure is based on the average of 2 readings. […]
Using the samples from the same animal study, TNF-α levels in plasma were analyzed. […]

[5] = system: mice; conditions: cited from earlier work

SMILES: Cc1cc(C(=O)Nc2ccc(Cl)cc2Cl)no1 [UTL-5g]
- TUNEL positive cells, protective effect ([1]; UTL-5g 7.5 mg/kg i.p. 1 hr prior to 15 Gy, liver 2 hr after): no significant protective effect
- numbers of TUNEL positive cells induced by irradiation ([1]; UTL-5g 15 mg/kg): 3.3 fold
- numbers of TUNEL positive cells induced by irradiation ([1]; UTL-5g 30 mg/kg): 1.8 fold
- numbers of TUNEL positive cells induced by irradiation ([1]; UTL-5g 60 mg/kg): 1.4 fold
- number of apoptotic cells in liver, non-irradiated animals ([1]; UTL-5g alone at 30 and 60 mg/kg, no irradiation): slightly increased the number of apoptotic cells
- platelet count ([2]; UTL-5g 60 mg/kg followed 30 min later by cisplatin 2.5 mg/kg or by saline): significantly increased platelet count
- WBC, protective effect ([2]; UTL-5g 60 mg/kg followed by cisplatin 2.5 mg/kg or saline): no significant protective effect
- platelet production, UTL-5g by itself ([2]; UTL-5g alone 60 mg/kg followed by saline, mice not treated by cisplatin): stimulated the production of platelets; also recorded: increased platelet counts
- liver TNF-α levels, reduction ([3]; UTL-5g 30 mg/kg i.p. 1 hr prior to liver irradiation 15 Gy): 20%
- liver TNF-α levels, reduction ([3]; UTL-5g 60 mg/kg i.p. 1 hr prior to liver irradiation 15 Gy): 29%
- TNF-α in plasma, effect of pretreatment [4]: lowered elevated TNF-α in plasma in a dose-dependent manner; also recorded: lowered the elevated levels of blood TNF-α induced by cisplatin in a dose dependent manner
- LD50 (acute toxicity) [5]: > 200 mg/kg
